Measurements from PubChem BioAssay (NCI).
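Method: 48-hour compound exposure of cells in 96-well plates, five concentrations, linear interpolation of endpoints. Abbreviation: GI50, concentration required for 50% inhibition of growth. TGI marks complete inhibition of growth.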

Columns and labels:
Assay in all cases: NCI anticancer screen, dose series, 48 h
TK-10 renal = test system: TK-10 renal
MCF7 breast = test system: MCF7 breast
HS 578T breast = test system: HS 578T breast
MDA-MB-231 breast = test system: MDA-MB-231 breast
HCT-15 colon = test system: HCT-15 colon
A498 renal = test system: A498 renal
HOP-62 NSCLC = test system: HOP-62 NSCLC
OVCAR-4 ovarian = test system: OVCAR-4 ovarian
EKVX NSCLC = test system: EKVX NSCLC
SF-539 CNS = test system: SF-539 CNS
IGROV1 ovarian = test system: IGROV1 ovarian
SK-MEL-5 melanoma = test system: SK-MEL-5 melanoma
A549 NSCLC = test system: A549 NSCLC
CAKI-1 renal = test system: CAKI-1 renal
SK-MEL-2 melanoma = test system: SK-MEL-2 melanoma
RXF 393 renal = test system: RXF 393 renal
SF-268 CNS = test system: SF-268 CNS
OVCAR-8 ovarian = test system: OVCAR-8 ovarian
K-562 leukemia = test system: K-562 leukemia
HL-60(TB) leukemia = test system: HL-60(TB) leukemia
LOX IMVI melanoma = test system: LOX IMVI melanoma
UACC-62 melanoma = test system: UACC-62 melanoma
SK-MEL-28 melanoma = test system: SK-MEL-28 melanoma
OVCAR-3 ovarian = test system: OVCAR-3 ovarian
HT29 colon = test system: HT29 colon
HOP-92 NSCLC = test system: HOP-92 NSCLC
MALME-3M melanoma = test system: MALME-3M melanoma
M14 melanoma = test system: M14 melanoma
SN12C renal = test system: SN12C renal

**Q.** What does the source list for `CCN(CC)c1ccc(/C=N/NC(=O)Cc2ccc(Nc3ccnc(C(F)(F)F)c3)cc2)c(O)c1`?
**A.** GI50 (TK-10 renal): 461 nM; TGI (TK-10 renal): > 100000 nM; GI50 (MCF7 breast): 461 nM; TGI (MCF7 breast): > 100000 nM; GI50 (HS 578T breast): 1950 nM; TGI (HS 578T breast): > 48900 nM; GI50 (MDA-MB-231 breast): 842 nM; TGI (MDA-MB-231 breast): > 100000 nM; GI50 (HCT-15 colon): 373 nM; TGI (HCT-15 colon): > 100000 nM; GI50 (A498 renal): 2640 nM; TGI (A498 renal): > 89500 nM; GI50 (HOP-62 NSCLC): 566 nM; TGI (HOP-62 NSCLC): > 100000 nM; GI50 (OVCAR-4 ovarian): 442 nM; TGI (OVCAR-4 ovarian): > 100000 nM; GI50 (EKVX NSCLC): 980 nM; TGI (EKVX NSCLC): > 77000 nM; GI50 (SF-539 CNS): 652 nM; TGI (SF-539 CNS): 7020 nM; GI50 (IGROV1 ovarian): 472 nM; TGI (IGROV1 ovarian): > 22000 nM; GI50 (SK-MEL-5 melanoma): 490 nM; TGI (SK-MEL-5 melanoma): 3860 nM; GI50 (A549 NSCLC): 1190 nM; TGI (A549 NSCLC): > 100000 nM; GI50 (CAKI-1 renal): 413 nM; TGI (CAKI-1 renal): > 25000 nM; GI50 (SK-MEL-2 melanoma): 4520 nM; TGI (SK-MEL-2 melanoma): > 100000 nM; GI50 (RXF 393 renal): 1030 nM; TGI (RXF 393 renal): 98500 nM; GI50 (SF-268 CNS): 455 nM; TGI (SF-268 CNS): > 100000 nM; GI50 (OVCAR-8 ovarian): 757 nM; TGI (OVCAR-8 ovarian): > 100000 nM; GI50 (K-562 leukemia): 490 nM; TGI (K-562 leukemia): > 100000 nM; GI50 (HL-60(TB) leukemia): 301 nM; TGI (HL-60(TB) leukemia): 1620 nM; GI50 (LOX IMVI melanoma): 413 nM; TGI (LOX IMVI melanoma): 3800 nM; GI50 (UACC-62 melanoma): 480 nM; TGI (UACC-62 melanoma): 7860 nM; GI50 (SK-MEL-28 melanoma): 1100 nM; TGI (SK-MEL-28 melanoma): > 78000 nM; GI50 (OVCAR-3 ovarian): 473 nM; TGI (OVCAR-3 ovarian): > 100000 nM; GI50 (HT29 colon): 638 nM; TGI (HT29 colon): > 68200 nM; GI50 (HOP-92 NSCLC): 4060 nM; TGI (HOP-92 NSCLC): > 100000 nM; GI50 (MALME-3M melanoma): 1180 nM; TGI (MALME-3M melanoma): > 26000 nM; GI50 (M14 melanoma): 637 nM; TGI (M14 melanoma): 5930 nM; GI50 (SN12C renal): 1150 nM; TGI (SN12C renal): > 100000 nM
